Data on 13 compounds can be found in US9132130B2, “Purine derivative and antitumor agent using same” (ZENYAKU KOGYO KABUSHIKI KAISHA, priority 2009, dated 2015).

Experiment [1] concerns B16F10 cells (mouse melanoma [malignant melanoma] cells). The experiment can be described thus: in vitro antitumor activity test, B16F10 cells, XTT colorimetry. It counts as cell-based. The following applies: B16-F10, cultured 72 hours. The procedure, abridged: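 B16F10 mouse melanoma cells were seeded from a 1×10^4 cells/ml suspension and allowed to adhere for 24 h. Compounds in DMSO were diluted in RPMI 1640 with 10% FBS to 2.0×10^−9 to 2.0×10^−4 M and incubated 72 h at 37° C, 5% CO2. XTT colorimetry gave GI50 (μM).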
Background: Tetrazolium dyes change colour on reduction, which living cells bring about.

The subject of experiment [2] is PC-3 cells (human prostate cancer cells). The experiment can be described thus: in vitro antitumor activity test, PC-3 cells, XTT colorimetry. It is filed as cell-based. The following applies: PC-3 human prostate cancer cells, cultured 72 hours. The procedure, abridged:
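PC-3 human prostate cancer cells, seeded at 2×10^4 cells/ml and allowed to adhere for 24 h, were exposed 72 h at 37° C, 5% CO2 to compound diluted in RPMI 1640 with 10% FBS to 2.0×10^−9 to 2.0×10^−4 M (pre-addition solutions). Growth was measured by XTT colorimetry and GI50 (μM) calculated.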

Experiment [3] concerns WiDr cells (human colon cancer cells). The experiment can be described thus: in vitro antitumor activity test, WiDr cells, XTT colorimetry. The following applies: cultured 72 hours. It counts as cell-based. An outline of the steps: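 Human colon cancer cells in MEM/10% FBS were seeded 3×10^4 cells/ml and allowed to adhere for 24 h, then exposed to compounds prepared at 2.0×10^−9 to 2.0×10^−4 M in RPMI 1640 for 72 h at 37° C, 5% CO2. Growth was read by XTT colorimetry and GI50 (μM) calculated.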

The test system of experiment [4] is MCF-7 cells (human breast cancer cells). The experiment can be described thus: antitumor activity against breast cancer cells, cell counting. The conditions noted are these: MCF7; MCF-7 human breast cancer cells, cultured 72 hours, cell counter. It counts as cell-based. Here is the method:
MCF-7 cells (human breast cancer cells) subcultured in a culture medium composed of a MEM medium added with 10% fetal bovine serum, 25 mM HEPES and 0.1 mg/ml kanamycin under the conditions of 37° C. and 5% carbon dioxide gas were made into single floating cells by treating with trypsin/EDTA, and a single cell suspension of 4×10^4 cells per 1 ml was prepared using the MEM medium (added with 10% fetal bovine serum, 25 mM HEPES and 0.1 mg/ml kanamycin). After dissolving the test substances (Compound 2 and Compound 7) in DMSO, they were diluted with the MEM medium (added with 10% fetal bovine serum, 25 mM HEPES and 0.1 mg/ml kanamycin) and prepared so that the concentrations were 6.4×10^−8 to 2.0×10^−5 M.
0.1 ml of the cell suspension was placed into each well of a 96-well microplate, cultured for 24 hours to allow the cells to adhere to the microplate, then 0.1 ml of the sample solutions were added, and cultured for 72 hours at 37° C. in 5% carbon dioxide gas.
Afterwards, the cells in each well were made single floating cells by treating with trypsin/EDTA, and the number of cells was counted using a cell counter to obtain the growth inhibition rate at various sample concentrations and calculate the concentrations at which growth was inhibited by 50% (GI50 values [μM]).

The test system of experiment [5] is P388 cells (mouse leukemia cells). The experiment can be described thus: in vitro antitumor activity test, P388 cells, XTT colorimetry. It is filed as cell-based. The conditions noted are these: cultured 72 hours. The procedure, abridged: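 Cells from DBA/2 mouse ascites, in RPMI 1640 with 10% FBS and 25 mM HEPES, seeded from a 4×10^4 cells/ml suspension. Equal volume added of compound solutions prepared at 2.0×10^−9 to 2.0×10^−4 M (pre-mixing). After 72 h at 37° C, 5% CO2, growth read by XTT; GI50 (μM) is the concentration giving 50% growth inhibition.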

A further experiment has as its system human lung cancer A549. The experiment can be described thus: in vivo antitumor activity, nude mice transplanted with human lung cancer A549. Further details: species or system BALB/c-nu/nu mice. The following applies: 400 mg/kg intraperitoneally daily day 0 to day 13 (12 times), tumor volume at day 14. Here is the method: Tumor tissue fragments of human lung cancer A549 (3 mm×3 mm×3 mm) were transplanted subcutaneously into the chests of six-week-old female BALB/c-nu/nu mice, and sample administration started when the tumor volume reached at least approximately 100 mm^3 (day 0). Compound 2 and Compound 7 were suspended in a 1% hydroxypropylcellulose (HPC [L]) solution using an agate mortar. 400 mg/kg of Compound 2 was orally administered daily from day 0 to day 13 (excluding day 3 and day 10, a total of 12 times). 400 mg/kg of Compound 7 was intraperitoneally administered daily from day 0 to day 13 (excluding day 4 and day 11, a total of 12 times). Tumor diameters were measured to calculate tumor volume (½×long diameter×short diameter×short diameter), and the tumor volume after 14 days (at day 14) from the start of sample administration was divided by the tumor volume at the start of the administration to calculate relative tumor growth rate. The percentage of the relative tumor growth rate of the control group with respect to the relative tumor growth rate of the group administered with Compound 2 or Compound 7 was taken as T/C (%).

Experiment [6] concerns A549 cells (human lung cancer cells). The experiment can be described thus: in vitro antitumor activity test, A549 cells, XTT colorimetry. It is filed as cell-based. The conditions noted are these: cultured 72 hours. The procedure, abridged: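 Cells seeded at 2×10^4 cells/ml in MEM + 10% FBS, 25 mM HEPES, kanamycin, allowed to adhere 24 h, then exposed to compounds (DMSO stocks diluted in RPMI 1640; prepared at 2.0×10^−9 to 2.0×10^−4 M) for 72 h at 37 °C, 5% CO2. Growth inhibition read by XTT colorimetry; GI50 (μM) calculated.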

Where a name gives a salt, the structure may show the parent alone.

For the compound `CCc1nc2c(N3CCN(N=O)CC3)nc(SCc3ccc(OC)cc3)nc2n1C` [Compound 7, 8-ethyl-2-(4-methoxybenzylsulfanyl)-9-methyl-6-(4-nitrosopiperazin-1-yl)-9H-purine], the concentration for 50% growth inhibition (GI50) (in general, the concentration that inhibits growth by half) in experiment [1] was 340 nM; in experiment [2], 140 nM; in experiment [3], 250 nM; in experiment [4] it was 130 nM; in experiment [5], 120 nM; in experiment [6], 130 nM. Also, in the experiment with human lung cancer A549, the T/C – broadly, the result in the treated group divided by that in the control group, in per cent – is 55.4%.
For `CCc1nc2c(N(C)C)nc(SCc3ccc(OC)c(N)c3)nc2n1C` [Compound 23, 2-(3-amino-4-methoxybenzylsulfanyl)-6-dimethylamino-8-ethyl-9-methyl-9H-purine], the GI50 came out at 500 nM in experiment [1]; 130 nM in experiment [2]; 440 nM in experiment [3]; 230 nM in experiment [5]; 250 nM in experiment [6].
Take `Sc1ncnc2nc[nH]c12` [Compound A, 6-mercaptopurine, reference compound]: the GI50 in experiment [1] was 22600 nM; in experiment [2] it was above 100000 nM; in experiment [3] it was 70000 nM; in experiment [5], 22500 nM; in experiment [6] it was above 100000 nM.
Regarding `CCc1nc2c(N3CCOCC3)nc(SCc3ccc(OC)c(NC(=O)CN)c3)nc2n1C` [Compound 28, 2-[3-(2-aminoacetylamino)-4-methoxybenzylsulfanyl]-8-ethyl-9-methyl-6-morpholino-9H-purine hydrochloride], the GI50 in experiment [1] turned out to be 1140 nM; in experiment [2] it was 990 nM; in experiment [3], 1200 nM; in experiment [5], 810 nM; in experiment [6], 900 nM.
For `COc1ccc(CSc2nc(N3CCOCC3)c3ncn(C)c3n2)cc1F` [Compound 83, 2-(3-fluoro-4-methoxybenzylsulfanyl)-9-methyl-6-morpholino-9H-purine] the same measures were 180 nM, 180 nM, 140 nM, 90 nM and 150 nM.
On to `CCc1nc2c(N(C)C)nc(SCc3ccc(OC)c(C#N)c3)nc2n1C` [Compound 69, 2-(3-cyano-4-methoxybenzylsulfanyl)-6-dimethylamino-8-ethyl-9-methyl-9H-purine], for which the GI50 in experiment [1] came to 200 nM; in experiment [2] it was 120 nM; in experiment [3], 150 nM; in experiment [5], 110 nM; in experiment [6], 150 nM.
As for `COc1ccc(CSc2nc(-c3ccco3)c3ncn(C)c3n2)cc1` [Compound 167, 6-(2-furyl)-2-(4-methoxybenzylsulfanyl)-9-methyl-9H-purine], the concentration for 50% growth inhibition (GI50) in experiment [1] came to 2470 nM; in experiment [2], 1800 nM; in experiment [3] it was 1750 nM; in experiment [5] it was 1870 nM; in experiment [6], 1490 nM.
For `CCOc1ccc(CSc2nc(N3C=COCC3)c3ncn(CC)c3n2)cc1N` [Compound 156, 2-(3-amino-4-ethoxybenzylsulfanyl)-6-(2,3-dihydro-[1,4]oxadin-4-yl)-9-ethyl-9H-purine] the same measures were 1400 nM, 1040 nM, 3380 nM, 740 nM and 700 nM.
For `CCOc1ccc(CSc2nc(N3CCOCC3)c3nc(CC)n(C)c3n2)cc1F` [Compound 116, 2-(4-ethoxy-3-fluorobenzylsulfanyl)-8-ethyl-9-methyl-6-morpholino-9H-purine], the concentration for 50% growth inhibition (GI50) in experiment [1] amounted to 440 nM; in experiment [2], 320 nM; in experiment [3], 330 nM; in experiment [5], 290 nM; in experiment [6] it was 450 nM.
As for `CCc1nc2c(N3CCN(N=O)C(C)C3)nc(SCc3ccc(OC)cc3)nc2n1C` (stereo in doubt) [Compound 22, 8-ethyl-2-(4-methoxybenzylsulfanyl)-9-methyl-6-[(3S)-3-methyl-4-nitrosopiperazin-1-yl]-9H-purine], the GI50 in experiment [1] came out at 1610 nM; in experiment [2], 640 nM; in experiment [3], 1190 nM; in experiment [5] it was 950 nM; in experiment [6] it was 1250 nM.
`CCn1c(C)nc2c(N3CCOCC3)nc(SCc3ccc(OC)cc3)nc21` [Compound 102, 9-ethyl-2-(4-methoxybenzylsulfanyl)-8-methyl-6-morpholino-9H-purine]: the GI50 is 1420 nM in experiment [1]; 830 nM in experiment [2]; 920 nM in experiment [3]; 720 nM in experiment [5]; 830 nM in experiment [6].
Take `COc1ccc(CSc2nc(N(C)C)c3ncn(C)c3n2)cc1` [Compound 21, 6-dimethylamino-2-(4-methoxybenzylsulfanyl)-9-methyl-9H-purine]: the GI50 in experiment [1] is 340 nM; in experiment [2], 140 nM; in experiment [3] it was 140 nM; in experiment [5], 100 nM; in experiment [6], 220 nM.
On to `CCOc1ccc(CSc2nc(N3CCOCC3)c3ncn(C)c3n2)cc1` [Compound 99, 2-(4-ethoxybenzylsulfanyl)-9-methyl-6-morpholino-9H-purine], for which the 50% growth inhibitory concentration (GI50) worked out at 1980 nM in experiment [1]; 5950 nM in experiment [2]; 1290 nM in experiment [3]; 960 nM in experiment [5]; 1180 nM in experiment [6].
